In PubChem BioAssay (NCI) one finds GI50 and TGI data, which are given here for 40 molecules.

Several values for one entry are separate records, joined by “and”; a condition that tells them apart may be missing. Equal values may be shown once.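 Five compound concentrations were applied to cells in 96-well plates for 48 hours; endpoints were derived by simple linear interpolation of the resulting dose-response curve. At the GI50, growth is halved. TGI marks complete inhibition of growth.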 Where only a bound is given, the exact number is not on record here.

This test deals with MDA-MB-468 breast. Put plainly: inhibition of tumour cell growth, NCI panel, 48 h.
With `C[C@@H]1COC(Nc2ccc3ncnc(Nc4ccc(OCc5nccs5)c(Cl)c4)c3c2)=N1`, the GI50 was 181 nM and 39.6 nM; the TGI is 1590 nM and 294 nM.

`N/C(=N\c1nc2ccccc2s1)NC(=O)Nc1cccc2ccccc12`: the GI50 is 372 nM and the TGI is 22700 nM.

For `Cc1ccccc1C(C(=O)NC1CCCCC1)N(C(=O)Cn1ccnc1C)c1cccc(F)c1` (stereo not given), the GI50 was > 100000 nM and the TGI was > 100000 nM.

Take `Cc1ccc(F)cc1NC(=O)c1cc(Cl)ccc1Nc1ccccc1`: the GI50 is > 100000 nM and the TGI was > 100000 nM.

As for `Cc1cc(NC(=O)NC(=O)c2ccccc2NC(=O)CN)ccc1Oc1ncc(Br)cn1`, the GI50 is 65 nM and the TGI stood at 36800 nM.

`CCC(=O)c1ccc2c(c1)N(CCCN1CCN(CCO)CC1)c1ccccc1S2`: the GI50 was 10500 nM and the TGI was 23500 nM.

`O=C(Nc1cccc(-n2ccc3c(NC(=O)c4ccccc4)nccc32)c1)c1cc(N2CCOCC2)cc(C(F)(F)F)c1`: the GI50 was 48.4 nM and the TGI amounted to 1420 nM.

Regarding `COc1cc(OC)cc(-c2cncn2-c2ccc(-c3nc4cc(OC)cc(OC)c4s3)cc2)c1`, the GI50 is 3170 nM and the TGI was > 100000 nM.

Consider `N=C(N)c1ccc(-c2ccc(-c3ccc(F)cc3)o2)o1`, for which the GI50 is 1360 nM and the TGI stood at 3000 nM.

With `Nc1nc(-c2cccc([N+](=O)[O-])c2)c(N=Nc2ccc([N+](=O)[O-])cc2Cl)s1`, the GI50 is 131 nM and the TGI is 711 nM.

Regarding `CNCCOC(=O)/C=C1/CCC2C(C(O)CC3C(C)(C(=O)OC)CCCC23C)C1C` (stereo not given), the GI50 is 37.7 nM and the TGI came out at 148 nM.

As for `COc1cc(-c2n/c(=C\c3c(O)[nH]c4ccccc34)cc3c2=Nc2ccccc2-3)cc(OC)c1OC`, the GI50 is 2570 nM and the TGI was determined as 7740 nM.

Turning to `COc1ccc2[nH]cc(-c3nc(-c4c[nH]c5ccncc45)cs3)c2c1`, the GI50 is 1780 nM and the TGI was 3670 nM.

For `C=C(C)[C@@H]1CC[C@]2(C(=O)NCCNCCNCCN)CC[C@]3(C)[C@H](CC[C@@H]4[C@@]5(C)CCC(=O)C(C)(C)[C@@H]5CC[C@]43C)[C@@H]12`, the GI50 was 8090 nM and the TGI is 16100 nM.

As for `O=[N+]([O-])c1cccc(-c2cc(-c3cc(Br)ccc3O)[nH]n2)c1`, the GI50 was 1470 nM and the TGI came out at 21100 nM.

`Cc1cc2nc3c4cccc(O)c4n(CCN(C)C)c3nc2cc1C`: the GI50 was 2560 nM and the TGI was determined as 8190 nM.

Regarding `Oc1cc(Cl)ccc1Cc1ccc(Cl)cc1O`, the GI50 was 11700 nM and the TGI was 35500 nM.

On to `CCN1CCC(CC(=O)Nc2n[nH]c3nc(-c4cccs4)c(Br)cc23)CC1`, for which the GI50 is 4530 nM and the TGI worked out at 10800 nM.

As to `Cc1ccc(C[P+](c2ccccc2)(c2ccccc2)c2ccccc2)cc1`, the GI50 was 172 nM and the TGI worked out at 1190 nM.

`COc1ccc(-c2cc(-c3nnc(SCC(=O)Nc4ccc(C(C)=O)cc4)o3)c3ccccc3n2)cc1`: the GI50 was > 100000 nM and the TGI is > 100000 nM.

As to `CC(=O)NC1=CC(=O)c2cc(C)cc(O)c2C1=O`, the GI50 was 1870 nM and the TGI was 5980 nM.

As to `Cc1cc(C)c2c(N)c3cccc(C)c3nc2n1`, the GI50 is 1280 nM and the TGI is 3370 nM.

`O=C1OCC2=C1C(c1cccc(C(F)(F)F)c1)c1cc3c(cc1N2CCO)CCC3` (stereo not given): the GI50 was 127 nM and the TGI was found to be 1200 nM.

Take `Cc1ccc(Oc2nc3ccccc3cc2-c2nnc(Cn3c(COc4ccccc4)nc4ccccc43)o2)cc1`: the GI50 is 3950 nM and the TGI was determined as 18300 nM.

On to `COC(=O)[C@@H]1CCCN1C(=O)[C@H]1CCCN1C(=O)[C@@H](Cc1c[nH]c2ccccc12)NC(=S)Nc1cc(C(F)(F)F)cc(C(F)(F)F)c1`, for which the GI50 was 2150 nM and the TGI was 6940 nM.

As to `CCCCCCN1CCN(Cc2ccc(N(CC)CC)cc2)C(=O)C1=O`, the GI50 is 1590 nM and the TGI was 16100 nM.

As to `O=C(/C=C\c1ccc2ccccc2n1)c1cc(Cl)ccc1O`, the GI50 is 5100 nM and the TGI was determined as 19700 nM.

As for `Nc1ccc(-n2c(=O)oc3ccc(Cl)cc3c2=O)c(Cl)c1`, the GI50 is 90.3 nM and the TGI came to 383 nM.

Consider `COc1ccc(-c2ccccc2)cc1-c1c(Nc2cc(Cl)cc(Cl)c2O)c(=O)c1=O`, for which the GI50 was 1130 nM and the TGI amounted to 3910 nM.

For the molecule `CCCn1cnc2c(c1=N)C(c1ccc(OC)cc1)c1sc3c(C)cccc3c1O2` (stereo not given), the GI50 was 360 nM and the TGI came to 13400 nM.

For `Oc1ccc(CN(Cc2ccc(C(F)(F)F)cc2)Cc2ccc(O)c3ncccc23)c2cccnc12`, the GI50 was 23.6 nM and the TGI was found to be 2230 nM.

Take `COc1ccc(-c2csc3c2-n2cccc2C3=O)cc1O`: the GI50 is 397 nM and the TGI is 2430 nM.

With `CCCCCCCCCCCCCCCCn1cc[n+](Cc2ccccc2)c1C`, the GI50 is 305 nM and the TGI was found to be 840 nM.

As for `COc1cc2ncn(-c3cc(OCc4ccccc4S(C)(=O)=O)c(C#N)s3)c2cc1OC`, the GI50 is > 25000 nM and the TGI was > 25000 nM.

For the molecule `CC(C)CCC[C@@H](C)[C@H]1CCC2C3=CCC4C(=O)C=CC(=O)C4C3CC[C@@]21C` (stereo not given in full), the GI50 is 215 nM and the TGI was determined as 570 nM.

Regarding `COc1ccc(/C=C\c2cc(OC)c(OC)c(OC)c2)cc1OCC(=O)Nc1nc2ccc(OC(F)(F)F)cc2s1`, the GI50 is 2300 nM and the TGI turned out to be 6880 nM.

Take `COc1ccc(-c2nc3sc4c(c3c(=O)[nH]2)CCCC4)c2ccccc12`: the GI50 was 1420 nM; the TGI was 5550 nM and 8960 nM.

In the case of `O=[N+]([O-])/C=C/c1ccc([N+](=O)[O-])cc1`, the GI50 was 1510 nM and the TGI stood at 3300 nM.

Take `COC1[C@@H]2C[C@H]3C(C)(C)O[C@@](C/C=C(/C)C(=O)O)(C2=O)[C@]32Oc3c(CC=C(C)C)c4c(c(O)c3C(=O)[C@H]12)C=CC(C)(C)O4` (stereo not given in full): the GI50 is 7460 nM and the TGI is 25000 nM.

Consider `Cc1ccc(-c2cc3nc(C(Cl)Cl)nc(-c4ccco4)n3n2)cc1`, for which the GI50 was 566 nM and the TGI worked out at 3050 nM.
